Measurements: patent US20120322060A1, “DIAGNOSIS AND MONITORING TREATMENT OF PSYCHIATRIC DISEASES WITH SPADIN AND RELATED METHODS” (CENTRE NATIONAL DE LE RECHERCHE SCIENTIFIQUE - CNRS -, priority 2011, published 2012)
No end group written: not given here.

Columns and labels:
mice = assay: Light/dark exploration; assay type: in vivo, mouse; settings: spadin i.p. 10^-5 M, diazepam i.p. 0.5 mg/kg
Procedure: The apparatus consisted of a cage (25×40×20 cm) divided into two compartments by a black partition containing a small opening that allows mouse to move from one compartment to the other. One compartment, comprising […] of the surface area, was made of white plastic and was brightly illuminated. The adjoining smaller compartment was black and dark. Mice were placed in the white compartment and allowed to move freely between the two chambers for 5 minutes. The number of transitions between the two compartments, time spent in the white chamber, and latency to the first transition were recorded. Mice tend to avoid the white compartment. Thus the measures of exploration in this area (time and entrances) were used as experimental indices of anxiety.

TREK-1 = molecular target: T1, TREK-1 (Mus musculus, UniProt P97438); assay: Whole-cell patch-clamp on CA3 pyramidal neurons in hippocampus brain slices; assay type: cell-based; design: a cellular network that endogenously expresses both TREK-1 and NTSR3/Sortilin; from tissue; host or cells: mouse hippocampal brain slices, CA3 pyramidal neurons; settings: CA3 neurons of kcnk2-/- mice
T1 sequence (P97438 1-426): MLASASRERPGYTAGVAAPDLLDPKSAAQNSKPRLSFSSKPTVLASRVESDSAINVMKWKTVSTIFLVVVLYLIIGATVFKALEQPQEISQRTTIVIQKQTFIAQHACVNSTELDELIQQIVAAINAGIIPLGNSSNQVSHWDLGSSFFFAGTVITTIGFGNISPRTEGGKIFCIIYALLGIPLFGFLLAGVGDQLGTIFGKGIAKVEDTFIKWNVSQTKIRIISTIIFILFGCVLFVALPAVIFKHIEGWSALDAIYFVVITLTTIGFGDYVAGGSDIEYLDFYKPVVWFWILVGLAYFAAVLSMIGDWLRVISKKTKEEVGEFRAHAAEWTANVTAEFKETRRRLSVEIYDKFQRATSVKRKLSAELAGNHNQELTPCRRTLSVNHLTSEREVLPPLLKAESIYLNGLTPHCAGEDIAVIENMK

APLPRWSGPIGVSWGLR [spadin]
number of light/dark transitions (mice): did not make more transitions
inhibitory effect on arachidonic acid-induced current (TREK-1): totally absent
